Assay results reported in patent US20170305992A1, “NOVEL PEPTIDES AND COMBINATION OF PEPTIDES FOR USE IN IMMUNOTHERAPY AGAINST VARIOUS TUMORS” (IMMATICS BIOTECHNOLOGIES GMBH, priority 2015, published 2017).

tested on: CD8+ T cells; assay: In vitro T-cell priming assay with aAPCs loaded with peptide/MHC and anti-CD28, pMHC multimer readout (in vitro immunogenicity); type: cell-based, human; conditions: HLA-A*02 restricted peptides, Table 6B
Text: In order to obtain information regarding the immunogenicity of the TUMAPs of the present invention, the inventors performed investigations using an in vitro T-cell priming assay based on repeated stimulations of CD8+ T cells with artificial antigen presenting cells (aAPCs) loaded with peptide/MHC complexes and anti-CD28 antibody.
In order to perform in vitro stimulations by artificial antigen presenting cells loaded with peptide-MHC complex (pMHC) and anti-CD28 antibody, the inventors first isolated CD8+ T cells from fresh HLA-A*02 leukapheresis products via positive selection using CD8 microbeads (Miltenyi Biotec, Bergisch-Gladbach, Germany) of healthy donors obtained from the University clinics Mannheim, Germany, after informed consent. PBMCs and isolated CD8+ lymphocytes were incubated in T-cell medium (TCM) until use consisting of RPMI-Glutamax (Invitrogen, Karlsruhe, Germany) supplemented with 10% heat inactivated human AB serum (PAN-Biotech, Aidenbach, Germany), 100 U/ml Penicillin/100 μg/ml Streptomycin (Cambrex, Cologne, Germany), 1 mM sodium pyruvate (CC Pro, Oberdorla, Germany), 20 μg/ml Gentamycin (Cambrex). 2.5 ng/ml IL-7 (PromoCell, Heidelberg, Germany) and 10 U/ml IL-2 (Novartis Pharma, Nürnberg, Germany) were also added to the TCM at this step. Generation of pMHC/anti-CD28 coated beads, T-cell stimulations and readout was performed in a highly defined in vitro system using four different pMHC molecules per stimulation condition and 8 different pMHC molecules per readout condition.
The purified co-stimulatory mouse IgG2a anti human CD28 Ab 9.3 (Jung et al., 1987) was chemically biotinylated using Sulfo-N-hydroxysuccinimidobiotin as recommended by the manufacturer (Perbio, Bonn, Germany). Beads used were 5.6 μm diameter streptavidin coated polystyrene particles (Bangs Laboratories, Ill., USA).
pMHC used for positive and negative control stimulations were A*0201/MLA-001 (peptide […] (SEQ ID NO. 289) from modified Melan-A/MART-1) and A*0201/DDX5-001 ([…] from DDX5, SEQ ID NO. 290), respectively.
800.000 beads/200 μl were coated in 96-well plates in the presence of 4×12.5 ng different biotin-pMHC, washed and 600 ng biotin anti-CD28 were added subsequently in a volume of 200 μl. Stimulations were initiated in 96-well plates by co-incubating […] CD8+ T cells with 2×10^5 washed coated beads in 200 μl TCM supplemented with 5 ng/ml IL-12 (PromoCell) for 3 days at 37° C. Half of the medium was then exchanged by fresh TCM supplemented with 80 U/ml IL-2 and incubating was continued for 4 days at 37° C. This stimulation cycle was performed for a total of three times. For the pMHC multimer readout using 8 different pMHC molecules per condition, a two-dimensional combinatorial coding approach was used as previously described (Andersen et al., 2012) with minor modifications encompassing coupling to 5 different fluorochromes. Finally, multimeric analyses were performed by staining the cells with Live/dead near IR dye (Invitrogen, Karlsruhe, Germany), CD8-FITC antibody clone SK1 (BD, Heidelberg, Germany) and fluorescent pMHC multimers. For analysis, a BD LSRII SORP cytometer equipped with appropriate lasers and filters was used. Peptide specific cells were calculated as percentage of total CD8+ cells. Evaluation of multimeric analysis was done using the FlowJo software (Tree Star, Oreg., USA). In vitro priming of specific multimer+CD8+ lymphocytes was detected by comparing to negative control stimulations.
Exemplary flow cytometry results after TUMAP-specific multimer staining for peptides of the invention are shown in FIG. 3 together with corresponding negative controls.

Row | Substance | Wells positive [%]
1 | 102 (GLYPVTLVGV; listed as Homo sapiens) [compound 102] | + (<20% = +)
2 | 246 (ALAGIVTNV; listed as Homo sapiens) [compound 246] | + (<20% = +)
3 | 254 (ALGDKFLLRV; listed as Homo sapiens) [compound 254] | + (<20% = +)
4 | 117 (TLLEGISRA; listed as Homo sapiens) [compound 117] | ++ (20% - 49% = ++)
5 | 35 (VIIKGLEEI; listed as Homo sapiens) [compound 35] | + (<20% = +)
6 | 264 (TLHDQVHLL; listed as Homo sapiens) [compound 264] | + (<20% = +)
7 | 166 (LLGDSSFFL; listed as Homo sapiens) [compound 166] | ++ (20% - 49% = ++)
8 | 121 (ALYVQAPTV; listed as Homo sapiens) [compound 121] | + (<20% = +)
9 | 50 (ILLSVLHQL; listed as Homo sapiens) [compound 50] | + (<20% = +)
10 | 27 (GLLGKVTSV; listed as Homo sapiens) [compound 27] | + (<20% = +)
11 | 14 (YTFSGDVQL; listed as Homo sapiens) [compound 14] | + (<20% = +)
12 | 242 (KLQEEIPVL; listed as Homo sapiens) [compound 242] | + (<20% = +)
13 | 255 (FLMKNSDLYGA; listed as Homo sapiens) [compound 255] | + (<20% = +)
14 | 236 (KMSELQTYV; listed as Homo sapiens) [compound 236] | + (<20% = +)
15 | 7 (ALLQALMEL; listed as Homo sapiens) [compound 7] | ++ (20% - 49% = ++)
16 | 248 (VLMQDSRLYL; listed as Homo sapiens) [compound 248] | ++ (20% - 49% = ++)
17 | 17 (GLLPSAESIKL; listed as Homo sapiens) [compound 17] | + (<20% = +)
18 | 260 (ALNESLVEC; listed as Homo sapiens) [compound 260] | + (<20% = +)
19 | 97 (KLFEKSTGL; listed as Homo sapiens) [compound 97] | + (<20% = +)
20 | 89 (SLAETIFIV; listed as Homo sapiens) [compound 89] | + (<20% = +)

Row | Substance | Wells positive [%]
21 | 101 (SLLEVNEASSV; listed as Homo sapiens) [compound 101] | + (<20% = +)
22 | 4 (VLFGELPAL; listed as Homo sapiens) [compound 4] | + (<20% = +)
23 | 251 (LLWGNLPEI; listed as Homo sapiens) [compound 251] | ++ (20% - 49% = ++)
24 | 66 (AMFPDTIPRV; listed as Homo sapiens) [compound 66] | + (<20% = +)
25 | 92 (RLFEEVLGV; listed as Homo sapiens) [compound 92] | ++ (20% - 49% = ++)
26 | 29 (KMISAIPTL; listed as Homo sapiens) [compound 29] | + (<20% = +)
27 | 261 (GLAALAVHL; listed as Homo sapiens) [compound 261] | ++ (20% - 49% = ++)
28 | 267 (YLLDMPLWYL; listed as Homo sapiens) [compound 267] | + (<20% = +)
29 | 253 (KLLAVIHEL; listed as Homo sapiens) [compound 253] | ++ (20% - 49% = ++)
30 | 77 (ALYGNVQQV; listed as Homo sapiens) [compound 77] | + (<20% = +)
31 | 48 (KISDFGLATV; listed as Homo sapiens) [compound 48] | ++ (20% - 49% = ++)
32 | 263 (SIIEYLPTL; listed as Homo sapiens) [compound 263] | + (<20% = +)
33 | 257 (KLIDHQGLYL; listed as Homo sapiens) [compound 257] | + (<20% = +)
34 | 9 (SLITGQDLLSV; listed as Homo sapiens) [compound 9] | + (<20% = +)
35 | 275 (AVPPPPSSV; listed as Homo sapiens) [compound 275] | ++ (20% - 49% = ++)
36 | 11 (LLDPKTIFL; listed as Homo sapiens) [compound 11] | ++ (20% - 49% = ++)
37 | 233 (SLFESLEYL; listed as Homo sapiens) [compound 233] | + (<20% = +)
38 | 157 (ILQDGQFLV; listed as Homo sapiens) [compound 157] | + (<20% = +)
39 | 234 (VLLNEILEQV; listed as Homo sapiens) [compound 234] | ++ (20% - 49% = ++)

same assay, conditions: percentage of positive donors; HLA class I peptides, Table 6A

Row | Substance | in vitro immunogenicity: donors
40 | 288 (SLYKGLLSV; listed as Homo sapiens) [compound 288] | ++++ (> = 70% = ++++)
41 | 287 (KIQEILTQV; listed as Homo sapiens) [compound 287] | +++ (50% - 69% = +++)

same assay, conditions: percentage of positive wells; HLA class I peptides, Table 6A

Row | Substance | in vitro immunogenicity: wells
42 | 288 (SLYKGLLSV; listed as Homo sapiens) [compound 288] | ++ (21% - 49% = ++)
43 | 287 (KIQEILTQV; listed as Homo sapiens) [compound 287] | + (<20% = +)
